Data as given in ChEMBL document CHEMBL3585309, “Peroxisome Proliferator-Activated Receptor γ (PPARγ) and Ligand Choreography: Newcomers Take the Stage” (J Med Chem, 2015).

Tests used:
[1] = molecular target: T1, Peroxisome proliferator-activated receptor gamma (Homo sapiens) (UniProt P37231); assay: Activity at human full length PPARgamma transfected in COS7 cells assessed as transactivation activity by reporter gene assay relative to rosiglitazone; type: cell-based; details: COS-7
T1 sequence (whole entry): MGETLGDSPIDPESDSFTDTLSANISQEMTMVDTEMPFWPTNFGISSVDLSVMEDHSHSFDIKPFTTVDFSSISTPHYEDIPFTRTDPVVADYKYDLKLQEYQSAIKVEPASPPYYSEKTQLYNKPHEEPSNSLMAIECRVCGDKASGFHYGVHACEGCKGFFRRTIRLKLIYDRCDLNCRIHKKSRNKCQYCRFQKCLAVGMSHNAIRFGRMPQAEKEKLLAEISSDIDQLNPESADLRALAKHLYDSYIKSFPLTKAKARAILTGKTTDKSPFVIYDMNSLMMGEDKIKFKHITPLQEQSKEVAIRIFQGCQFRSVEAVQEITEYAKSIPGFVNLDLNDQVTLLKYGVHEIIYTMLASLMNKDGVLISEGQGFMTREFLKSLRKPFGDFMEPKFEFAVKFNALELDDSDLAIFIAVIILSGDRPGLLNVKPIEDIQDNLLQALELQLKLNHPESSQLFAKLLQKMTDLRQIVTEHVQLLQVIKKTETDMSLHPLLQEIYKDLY

[2] = molecular target: T2, Peroxisome proliferator-activated receptor gamma (Homo sapiens, UniProt P37231); assay: Activity at PPARgamma (unknown origin) assessed as transactivation activity by reporter gene assay
T2 sequence (P37231 whole entry): T1 sequence (whole entry)

[3] = molecular target: T1, Peroxisome proliferator-activated receptor gamma (Homo sapiens); assay: Activity at PPARgamma (unknown origin) transfected in 293T cells assessed as transactivation activity after 24 hrs by PPRE-TK- luciferase reporter gene assay relative to rosiglitazone; type: cell-based
[4] = molecular target: T1, Peroxisome proliferator-activated receptor gamma (Homo sapiens); assay: Activity at PPARgamma (unknown origin) assessed as transactivation activity by reporter gene assay relative to rosiglitazone
[5] = molecular target: T1, Peroxisome proliferator-activated receptor gamma (Homo sapiens); assay: Activity at human full length PPARgamma LBD transfected in COS7 cells assessed as transactivation activity by reporter gene assay relative to rosiglitazone; type: cell-based; details: COS-7
[6] = molecular target: T2, Peroxisome proliferator-activated receptor gamma; assay: Activity at human PPARgamma transfected in HEK293 cells assessed as transactivation activity after 24 hrs by Dual-luciferase reporter gene assay relative to rosiglitazone; type: cell-based
[7] = molecular target: T2, Peroxisome proliferator-activated receptor gamma; assay: Activity at full length human PPARgamma transfected in CV1 cells assessed as transactivation activity after 24 hrs by PPRE-TK- luciferase reporter gene assay; type: cell-based, CV-1
[8] = molecular target: T1, Peroxisome proliferator-activated receptor gamma (Homo sapiens); assay: Activity at full length human PPARgamma transfected in CV1 cells assessed as transactivation activity after 24 hrs by PPRE-TK- luciferase reporter gene assay relative to rosiglitazone; type: cell-based; details: CV-1
[9] = molecular target: T2, Peroxisome proliferator-activated receptor gamma; assay: Activity at human PPARgamma transfected in HEK293 cells assessed as transactivation activity by luciferase reporter gene assay; type: cell-based

## CCCCCCCCCC(=O)O
[1]
  %max: 60%

## Cc1c(C)n(Cc2ccc(-c3ccccc3C(=O)O)cc2)c2ccc(C(=O)N[C@@H](C)c3ccc([N+](=O)[O-])cc3)cc12
[2]
  EC50: Not Active

## C[C@@H]1O[C@@H](O[C@@H]2[C@H](O[C@H]3C[C@]4(C)[C@H](C[C@@H](O)[C@@H]5[C@@](C)([C@]6(C)CC[C@H](C(C)(C)O)O6)CC[C@]54C)[C@@]4(C)CC[C@H](O)C(C)(C)[C@H]34)O[C@H](CO)[C@@H](O)[C@@H]2O)[C@H](O)[C@H](O)[C@H]1O
[3]
  %max: 30%

## CC[C@H](OC(=O)N(Cc1ccccc1)C(=O)Nc1cc(OC)cc(OC)c1)c1cc(-c2ccc(OC(C)(C)C(=O)O)cc2)no1
[2]; read-out: EC50
  EC50: 183 nM
[4]
  %max: 60%

## C[C@H](CCC(=O)O)C[C@H](C)C[C@H](C)C(=O)/C=C(\O)[C@H](C)C[C@H](C)C/C=C/[C@@H](C)[C@@H](O)[C@@H](C)[C@@H](O)C[C@@H]1CC[C@@](C)([C@H]2CC[C@@](C)([C@@H](C)O)O2)O1
[5]
  %max: 35%

## Cc1c(C)n(Cc2ccc(-c3ccccc3C(=O)O)cc2)c2ccc(C(=O)NCc3cccnc3)cc12
[6]
  EC50: Not Active

## CCCc1nc2c(C)cc(-c3nc4ccccc4n3C)cc2n1Cc1ccc(-c2ccccc2C(=O)O)cc1
[7]
  EC50: 4500 nM
[8]
  %max: 30%

## Cc1oc(-c2ccccc2)nc1CCOc1ccc(C[C@@H](NC(=O)/C=C/c2ccco2)C(=O)O)cc1
[9]
  EC50: 155 nM

## CC[C@@H](OC(=O)N(Cc1ccccc1)C(=O)Nc1cc(OC)cc(OC)c1)c1cc(-c2ccc(OC(C)(C)C(=O)O)cc2)no1
[2]; read-out: EC50
  EC50: 0.38 nM
[4]
  %max: 70%
